This is an account of results in US20130102009A1, “SIRTUIN ACTIVATORS AND ACTIVATION ASSAYS” (priority 2010, published 2013).

One test has as its target T1, SIRT1(183-664) (Homo sapiens, UniProt Q96EB6).
T1 construct: the truncated version used for biophysical studies SIRT1(183-664); made in house
T1 sequence (Q96EB6 183-664): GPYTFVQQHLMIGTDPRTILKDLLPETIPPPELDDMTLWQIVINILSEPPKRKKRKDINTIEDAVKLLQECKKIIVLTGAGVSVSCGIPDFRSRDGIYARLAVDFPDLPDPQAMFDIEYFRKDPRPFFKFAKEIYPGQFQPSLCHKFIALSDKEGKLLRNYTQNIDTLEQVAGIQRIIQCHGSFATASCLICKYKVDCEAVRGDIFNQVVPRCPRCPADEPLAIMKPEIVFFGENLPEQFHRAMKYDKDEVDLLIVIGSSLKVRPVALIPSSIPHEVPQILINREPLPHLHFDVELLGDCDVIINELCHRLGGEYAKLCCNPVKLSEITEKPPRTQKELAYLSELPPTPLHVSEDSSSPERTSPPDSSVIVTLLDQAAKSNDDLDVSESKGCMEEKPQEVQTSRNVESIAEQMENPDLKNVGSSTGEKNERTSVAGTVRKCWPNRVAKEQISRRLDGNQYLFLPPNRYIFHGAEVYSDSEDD
The experiment in a line: ITC binding of STACs to SIRT1(183-664). The note with it: dissociation constant of SRT:SIRT1 complex, read-out: Kx (μM), ITC. How it is done:
All peptides were prepared by BioPeptide (San Diego, Calif.) and shown to be at least 95% pure by analytical HPLC analysis. Bovine glutamate dehydrogenase (GDH), α-ketoglutarate, NADH and NAD^+ were from Sigma Chemical Company. Full-length, human SIRT1 and the truncated version used for biophysical studies SIRT1(183-664) were prepared as described previously, and shown to have equivalent kinetic properties (Milne et al. (2007) Nature 450, 712-716). The nicotinamidase PNC1 was prepared as described by Denu and colleagues (Smith et al. (2009) Anal Biochem 394, 101-109). ITC experiments were performed using either a VP-ITC system or iTC200 system (MicroCal) at 26° C. in a buffer composed of 137 mM NaCl, 2.7 mM KCl, 1 mM MgCl2, 2 mM TCEP, 5% (v/v) glycerol and 50 mM HEPES-NaOH, pH 7.3. SIRT1(183-664) was purified and dialyzed against the buffer, centrifuged, and degassed before the experiment. The peptide and compounds were dissolved in the final dialysis buffer and their pH values were adjusted to match that of the protein solution. […] To characterize this interaction using the iTC200 system, 1 mM TAMRA-peptide was injected in 20 aliquots of 2 μL, (except the first injection, which was 0.5 μL) into a 0.202 mL sample cell containing 100 μM STAC. For STACs with poor solubility, the concentrations were adjusted accordingly. […] To characterize the interaction of a STAC with SIRT1(183-664) on the VP-ITC system, 100 μM enzyme was injected in 35 aliquots of 8 μL, (except the first injection, which was 2 μL) into a 1.47 mL sample cell containing 10 μM STAC. […] In all cases, data was corrected for the heat of dilution and fitted using a nonlinear least-squares routine using a single-site binding model with Origin for ITC v7.0383 (Microcal) with the stoichiometry (n), the enthalpy of the reaction (ΔH) and the association constant (Ka) calculated.

In another test the target is TAMRA-peptide. The experiment in a line: ITC binding of STACs to TAMRA-peptide. The note with it: 26° C.; for Kd: pH 7.3, read-out: Kd for the binding of activator to TAMRA-peptide. On the procedure: ITC experiments were performed using either a VP-ITC system or iTC200 system (MicroCal) at 26° C. in a buffer composed of 137 mM NaCl, 2.7 mM KCl, 1 mM MgCl2, 2 mM TCEP, 5% (v/v) glycerol and 50 mM HEPES-NaOH, pH 7.3. SIRT1(183-664) was purified and dialyzed against the buffer, centrifuged, and degassed before the experiment. The peptide and compounds were dissolved in the final dialysis buffer and their pH values were adjusted to match that of the protein solution. […] To characterize this interaction using the iTC200 system, 1 mM TAMRA-peptide was injected in 20 aliquots of 2 μL, (except the first injection, which was 0.5 μL) into a 0.202 mL sample cell containing 100 μM STAC. For STACs with poor solubility, the concentrations were adjusted accordingly. […] In all cases, data was corrected for the heat of dilution and fitted using a nonlinear least-squares routine using a single-site binding model with Origin for ITC v7.0383 (Microcal) with the stoichiometry (n), the enthalpy of the reaction (ΔH) and the association constant (Ka) calculated.

“Also recorded” adds a separate entry of the source. Structures can show the parent of a compound that is named as a salt.

Turning to `CN(C)Cc1cnc2sc(-c3ccccc3NC(=O)c3cnc4ccccc4n3)nc2c1` [Compound 2, N-(2-(6-((dimethylamino)methyl)thiazolo[5,4-b]pyridin-2-yl)phenyl)quinoxaline-2-carboxamide], the Kd at SIRT1(183-664) turned out to be 0.32 µM. As to `Cc1nc(-c2cccnc2)sc1C(=O)Nc1ccccc1-c1cn2c(CN3CC4CC3CN4)csc2n1` (stereo not shown) [Compound 4, N-(2-(3-(2,5-diazabicyclo[2.2.1]heptan-2-ylmethyl)imidazo[2,1-b]thiazol-6-yl)phenyl)-4-methyl-2-(pyridin-3-yl)thiazole-5-carboxamide], the “Kd for the binding of activator to TAMRA-peptide” value on TAMRA-peptide (pH 7.3) is given as “no detectable binding; also recorded: lack of binding”. In addition, the Kd at TAMRA-peptide was more than 100000 nM; at SIRT1(183-664) it was 3 µM. For `CCCCc1nc(NC2CCNCC2)cc(C(=O)Nc2ccccc2-c2nc3cc(COC4CCNCC4)cnc3s2)n1` [Compound 10, 2-butyl-6-(piperidin-4-ylamino)-N-(2-(6-((piperidin-4-yloxy)methyl)thiazolo[5,4-b]pyridin-2-yl)phenyl)pyrimidine-4-carboxamide], the Kd at TAMRA-peptide is 2500 nM.

With `CN(C)CCCNc1cc(-c2nc3c(NC(=O)c4ccc(CN5CCNCC5)cc4)cccc3[nH]2)ccn1` [Compound 14, N-(2-(2-(3-(dimethylamino)propylamino)pyridin-4-yl)-1H-benzo[d]imidazol-4-yl)-4-(piperazin-1-ylmethyl)benzamide trihydrochloride], on SIRT1(183-664), the Kd is 0.43 µM. As to `COc1cc(C(=O)Nc2ccccc2-c2cn3c(CN4CCNCC4)csc3n2)cc(OC)c1OC` [SRT1460], on TAMRA-peptide, the Kd is 140000 nM.
